The source of these data is the supplement of paper PMC10307832.

What all share (experiment): relative viability (nuclei count vs DMSO), 5 days (fraction); higher = more cells survive
Compound in the assay “XMD8-85 + Dasatinib”: CN1CCN(CC1)C2=CC(=C(C=C2)NC3=NC=C4C(=N3)N(C5=CC=CC=C5C(=O)N4C)C)OC [XMD8-85] + Cc1nc(Nc2ncc(C(=O)Nc3c(C)cccc3Cl)s2)cc(N2CCN(CCO)CC2)n1 [Dasatinib] (partner 0.075 µM)
Put shortly:
(§1)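 Lung cancer cell lines in 1536-well plates were dosed by pin tool the day after seeding, either with one drug alone or with a fixed anchor-drug dose plus five library-drug doses (not always all listed) in √10 steps. After 5 days, cells were fixed and their nuclei stained in one step (final 0.05% Triton X-100, 1% formaldehyde, 1 ug/ml Hoechst), then counted on 4× images. Relative viability is the nuclei count in treated wells divided by that in vehicle wells. Values are medians of duplicate plates.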

Compound in the assay “XMD8-85 + Decitabine”: CN1CCN(CC1)C2=CC(=C(C=C2)NC3=NC=C4C(=N3)N(C5=CC=CC=C5C(=O)N4C)C)OC [XMD8-85] + Nc1ncn([C@H]2C[C@H](O)[C@@H](CO)O2)c(=O)n1 [Decitabine] (partner 2 µM)
Put shortly: as §1

Compound in the assay “XMD8-85 + Olaparib”: CN1CCN(CC1)C2=CC(=C(C=C2)NC3=NC=C4C(=N3)N(C5=CC=CC=C5C(=O)N4C)C)OC [XMD8-85] + O=C(c1cc(Cc2n[nH]c(=O)c3ccccc23)ccc1F)N1CCN(C(=O)C2CC2)CC1 [Olaparib] (partner 8 µM)
In a few lines:
as §1

Compound in the assay “4EGI-1 + Navitoclax”: O=C(O)C(Cc1ccccc1[N+](=O)[O-])=NNc1nc(-c2ccc(Cl)c(Cl)c2)cs1 (mixture of isomers) [4EGI-1] + CC1(C)CCC(c2ccc(Cl)cc2)=C(CN2CCN(c3ccc(C(=O)NS(=O)(=O)c4ccc(N[C@H](CCN5CCOCC5)CSc5ccccc5)c(S(=O)(=O)C(F)(F)F)c4)cc3)CC2)C1 [Navitoclax] (partner 0.5 µM)
In a few lines: as §1

Take NCI-H1792: the relative viability was 0.749 with XMD8-85 + Dasatinib (first compound 0.253 µM); 1.15 with XMD8-85 + Dasatinib (first compound 2.53 µM); 0.85 with XMD8-85 + Dasatinib (first compound 8 µM); 0.468 in the assay with XMD8-85 + Decitabine (first compound 0.253 µM); 0.525 with XMD8-85 + Decitabine (first compound 0.8 µM); 0.504 in the assay with XMD8-85 + Decitabine (first compound 2.53 µM). Also, the relative viability is 0.361 in the assay with XMD8-85 + Decitabine (first compound 8 µM); 0.526 with XMD8-85 + Olaparib (first compound 0.253 µM); 0.298 in the assay with XMD8-85 + Olaparib (first compound 0.8 µM); 0.284 with XMD8-85 + Olaparib (first compound 2.53 µM); 0.318 with XMD8-85 + Olaparib (first compound 8 µM); 0.618 with 4EGI-1 + Navitoclax (first compound 0.5 µM). Also, the relative viability in the assay with 4EGI-1 + Navitoclax (first compound 1.581 µM) was 0.498; in the assay with 4EGI-1 + Navitoclax (first compound 5 µM), 0.607; with 4EGI-1 + Navitoclax (first compound 15.81 µM), 0.552; with 4EGI-1 + Navitoclax (first compound 50 µM), 0.542.
